Experiments:
Cdk2(S276C) (C177A) = target: T1, Cdk2(S276C) (C177A) (Homo sapiens, UniProt P24941, C177A/S276C); assay: Kinetic thiol consumption assay with Cdk2 mutant S276C; format: binding; set-up: key to Rate enhancement, Cdk2 S276C: rate constant with Cdk2 ÷ rate constant with model thiol (fold); details: additional mutation C177A; for Rate constant with Cdk2 S276C: Protein: Cdk2, cysteine position S276C, in h^-1
T1 construct: poly-histidine; made in house; host or cells: E. coli
Procedure, shortened: (§1)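 Read-out is fluorescence at 380/470 nm, taken after 1 h at room temperature and normalized to a DMSO/thiol-only control over time. Thiol (5 μM Cdk2 mutant or model thiol) was in degassed pH 8 phosphate buffer with 2% v/v TCEP beads. Acrylamide rate constants for Cdk2 were divided by those with model thiol.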

Cdk2(N272C) (C177A) = target: T2, Cdk2(N272C) (C177A) (Homo sapiens, UniProt P24941, C177A/N272C); assay: Kinetic thiol consumption assay with Cdk2 mutant N272C; format: binding; set-up: key to Rate enhancement, Cdk2 N272: rate constant with Cdk2 ÷ rate constant with model thiol (fold); details: for Rate enhancement, Cdk2 N272: Cdk2 N272, additional mutation C177A; for Rate constant with Cdk2 N272C: Protein: Cdk2, cysteine position N272C, additional mutation C177A, in h^-1
T2 construct: poly-histidine; made in house; host or cells: E. coli
Procedure, shortened: as §1

Cdk2(C177A, F80C) = target: T3, Cdk2(C177A, F80C) (Homo sapiens, UniProt P24941, C177A/F80C); assay: Kinetic thiol consumption assay with Cdk2 mutant F80C, incl. kobs versus concentration (Kd, k2); format: binding; set-up: key to Rate enhancement, Cdk2 F80C: Cdk2 rate constant divided by model-thiol rate constant; details: additional mutation C177A; for Rate constant with Cdk2 F80C: Protein: Cdk2, cysteine position F80C, in h^-1
T3 construct: poly-histidine; made in house; host or cells: E. coli
Procedure, shortened: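 His-tagged Cdk2(C177A/F80C) from E. coli or model thiol, 5 μM in degassed phosphate buffer pH 8 with TCEP beads, reacted with acrylamide ligands; fluorescence (ex/em 380/470 nm) normalized to DMSO control and fitted to first-order decay for kobs. Kd and k2 obtained from hyperbolic fit of kobs versus ligand concentration.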

[1] = target: T4, human cyclin-dependent kinase 2 (Cdk2) (Homo sapiens, UniProt P24941); assay: Kinetic thiol consumption assay with wild type Cdk2 (C177); format: binding; set-up: key to Rate enhancement, Cdk2 WT: k(Cdk2) divided by k(model thiol); Rate constant with Cdk2 (k(Cdk2)): unit not given here; details: for Rate constant with Cdk2 (k(Cdk2)): 500 μM ligand, 5 μM thiol, phosphate buffer pH 8; for Rate enhancement, Cdk2 WT: no additional mutations; for Rate constant with Cdk2 WT: Protein: Cdk2, cysteine position WT, in h^-1; for k(Cdk2)/k(Cdk2_mut) rate enhancement: model thiol Cdk2[C177A, F80C, K278C]; for k(Cdk2)/k(GSH) rate enhancement: model thiol glutathione
T4 construct: poly-histidine; made in house; host or cells: E. coli
Procedure, shortened: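 His-tagged human Cdk2 from E. coli (sole surface cysteine C177) or a model thiol, each 5 μM in degassed phosphate buffer pH 8 with immobilized TCEP, reacted with acrylamides at room temperature. Fluorescence (ex 380/em 470) normalized to DMSO/thiol control over time; first-order rate constants, Cdk2 rate divided by model-thiol rate.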

[2] = Kinetic thiol consumption assay with model thiol glutathione; format: physicochemical; set-up: Rate constant with glutathione (k(GSH)): unit not given here; details: for Rate constant with glutathione (k(GSH)): 500 μM ligand, 5 μM thiol, phosphate buffer pH 8; for Rate constant with Glutathione: Protein: Glutathione, cysteine position NA, in h-1
Procedure, shortened: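 GSH 5 μM, degassed phosphate buffer pH 8, TCEP beads 2% v/v; acrylamide added; RT, 1 h; fluorescence ex/em 380/470 nm; normalized to DMSO/thiol control; k from first-order exponential decay fit.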

Cdk2(R122C) (C177A) = target: T5, Cdk2(R122C) (C177A) (Homo sapiens, UniProt P24941, C177A/R122C); assay: Kinetic thiol consumption assay with Cdk2 mutant R122C; format: binding; set-up: key to Rate enhancement, Cdk2 R122C: rate constant with Cdk2 ÷ rate constant with model thiol (fold); details: additional mutation C177A; for Rate constant with Cdk2 R122C: Protein: Cdk2, cysteine position R122C, in h-1
T5 construct: poly-histidine; made in house; host or cells: E. coli
Procedure, shortened: as §1

Cdk2(T182C) (C177A) = target: T6, Cdk2(T182C) (C177A) (Homo sapiens, UniProt P24941, C177A/T182C); assay: Kinetic thiol consumption assay with Cdk2 mutant T182C; format: binding; set-up: key to Rate enhancement, Cdk2 T182C: rate constant with Cdk2 ÷ rate constant with model thiol (fold); details: additional mutation C177A; for Rate constant with Cdk2 T182C: Protein: Cdk2, cysteine position T182C, in h^-1
T6 construct: poly-histidine; made in house; host or cells: E. coli
Procedure, shortened: as §1

Cdk2[C177A, F80C, K278C] = target: T7, Cdk2[C177A, F80C, K278C] (Homo sapiens, UniProt P24941, C177A/F80C/K278C); assay: Kinetic thiol consumption assay with mutant Cdk2 as model thiol; format: binding; set-up: unit not given here; details: 500 μM ligand, 5 μM thiol, phosphate buffer pH 8
T7 construct: poly-histidine; made in house; host or cells: E. coli
Procedure, shortened: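 First-order rate constants were derived by exponential-decay fitting of DMSO/thiol-normalized fluorescence (380/470 nm) over time at room temperature. Thiol was 5 μM E. coli-expressed His-tagged Cdk2 mutant C177A/F80C/K278C in degassed pH 8 phosphate buffer containing 2% v/v TCEP beads.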

Cdk2(H71C) (C177A) = target: T8, Cdk2(H71C) (C177A) (Homo sapiens, UniProt P24941, C177A/H71C); assay: Kinetic thiol consumption assay with Cdk2 mutant H71C; format: binding; set-up: key to Rate enhancement, Cdk2 H71C: rate constant with Cdk2 ÷ rate constant with model thiol (fold); details: additional mutation C177A; for Rate constant with Cdk2 H71C: Protein: Cdk2, cysteine position H71C, in h^-1
T8 construct: poly-histidine; made in house; host or cells: E. coli
Procedure, shortened: as §1

Cdk2(S181C) (C177A) = target: T9, Cdk2(S181C) (C177A) (Homo sapiens, UniProt P24941, C177A/S181C); assay: Kinetic thiol consumption assay with Cdk2 mutant S181C; format: binding; set-up: key to Rate enhancement, Cdk2 S181C: rate constant with Cdk2 ÷ rate constant with model thiol (fold); details: additional mutation C177A; for Rate constant with Cdk2 S181C: Protein: Cdk2, cysteine position S181C, in h^-1
T9 construct: poly-histidine; made in house; host or cells: E. coli
Procedure, shortened: as §1

| Rate enhancement, Cdk2 S276C (Cdk2(S276C) (C177A)) | Rate constant with Cdk2 S276C (Cdk2(S276C) (C177A)) | Rate enhancement, Cdk2 N272 (Cdk2(N272C) (C177A)) | Rate constant with Cdk2 N272C (Cdk2(N272C) (C177A)) | Rate enhancement, Cdk2 F80C (Cdk2(C177A, F80C)) | Rate constant with Cdk2 F80C (Cdk2(C177A, F80C)) | Rate constant with Cdk2 (k(Cdk2)) [1] | Rate enhancement, Cdk2 WT [1] | Rate constant with Cdk2 WT [1] | k(Cdk2)/k(Cdk2_mut) rate enhancement [1] | k(Cdk2)/k(GSH) rate enhancement [1] | Rate enhancement, Cdk2 R122C (Cdk2(R122C) (C177A)) | Rate constant with Cdk2 R122C (Cdk2(R122C) (C177A)) | Rate enhancement, Cdk2 T182C (Cdk2(T182C) (C177A)) | Rate constant with Cdk2 T182C (Cdk2(T182C) (C177A)) | Rate constant with Cdk2[C177A, F80C, K278C] (k(Cdk2_mut)) (Cdk2[C177A, F80C, K278C]) | Rate enhancement, Cdk2 H71C (Cdk2(H71C) (C177A)) | Rate constant with Cdk2 H71C (Cdk2(H71C) (C177A)) | SMILES | Rate constant with glutathione (k(GSH)) [2] | Rate constant with Glutathione [2] | further results |
| --- | --- | --- | --- | --- | --- | --- | --- | --- | --- | --- | --- | --- | --- | --- | --- | --- | --- | --- | --- | --- | --- |
| 0.9981 | 0.007413 | 0.6801 | 0.005051 | 0.3417 | 0.002538 | 0.00341 | 0.4606 | 0.003421 | 1.51 | 0.4373 | 0.3078 | 0.002286 | 1.305 | 0.009691 | 0.00226 | 0.8384 | 0.006227 | C=CC(=O)NC(C)c1cc(OC)c(OC)c(OC)c1 (stereo not shown) [EL-1101] | 0.0078 | 0.007427 | Rate enhancement, Cdk2 S181C (Cdk2(S181C) (C177A)): 0.396; Rate constant with Cdk2 S181C (Cdk2(S181C) (C177A)): 0.002941 |
| 1.204 | 0.08025 | 0.8368 | 0.0558 | 17.8 | 1.187 | 0.2317 | 3.475 | 0.2317 | 0.3223 | 3.556 | 0.1738 | 0.01159 | 9.837 | 0.6559 | 0.7188 | 0.5597 | 0.03732 | C=CC(=O)Nc1ccc(C(=O)c2ccccc2)cc1 [CA-219] | 0.06515 | 0.06668 | Rate enhancement, Cdk2 S181C (Cdk2(S181C) (C177A)): 0.5975; Rate constant with Cdk2 S181C (Cdk2(S181C) (C177A)): 0.03984 |
| 0.7069 | 0.01153 | 0.09295 | 0.001516 | 0.1163 | 0.001897 | 0.00343 | 0.2104 | 0.003432 | 1.377 | 0.3593 | 0.2397 | 0.00391 | 0.595 | 0.009705 | 0.00249 | 0.07112 | 0.00116 | C=CC(=O)N1CCC2(CC1)NC(=O)N(C)C2=O [CA-046] | 0.00955 | 0.01631 | Rate enhancement, Cdk2 S181C (Cdk2(S181C) (C177A)): 0.1987; Rate constant with Cdk2 S181C (Cdk2(S181C) (C177A)): 0.00324 |
| 2.718 | 0.0502 | 0.7223 | 0.01334 | 1.278 | 0.02361 | 0.02784 | 1.053 | 0.01944 | 2.793 | 2.056 | 0.6416 | 0.01185 | 10.15 | 0.1874 | 0.00997 | 1.75 | 0.03232 | C=CC(=O)N1CCCc2sccc2C1 [CA-034] | 0.01354 | 0.01847 | Rate enhancement, Cdk2 S181C (Cdk2(S181C) (C177A)): 0.5858; Rate constant with Cdk2 S181C (Cdk2(S181C) (C177A)): 0.01082 |

From patent publication US11415579B2, “Assay for measuring a rate of reaction between a target and a ligand candidate” (Imperial College Innovations Ltd., priority 2016, dated 2022)
